The values that follow come from patent US7585859B2, “PDE4B inhibitors and uses therefor” (Plexxikon, Inc., priority 2004, dated 2009).

The target of one experiment is T1, PDE4B: The catalytic domain of human PDE4B from S152-S528 (Homo sapiens, UniProt Q07343).
T1 construct: His6 (N); thrombin cleavage site (N); made in house; host or cells: E. coli
T1 sequence (Q07343 with tags, fused parts or gaps): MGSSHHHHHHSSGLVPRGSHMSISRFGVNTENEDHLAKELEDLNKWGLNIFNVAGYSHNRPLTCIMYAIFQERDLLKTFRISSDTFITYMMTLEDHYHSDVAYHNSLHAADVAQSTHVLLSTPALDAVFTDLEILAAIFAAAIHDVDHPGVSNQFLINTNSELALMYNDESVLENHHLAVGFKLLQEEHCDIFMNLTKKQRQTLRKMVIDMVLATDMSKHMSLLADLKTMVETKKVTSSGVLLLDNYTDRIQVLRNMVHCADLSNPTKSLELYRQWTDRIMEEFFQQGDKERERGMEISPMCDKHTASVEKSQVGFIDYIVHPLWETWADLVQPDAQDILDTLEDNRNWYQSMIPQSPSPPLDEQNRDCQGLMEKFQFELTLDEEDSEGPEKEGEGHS
Description: PDE4 IC50 determination by Scintillation Proximity Assay, PDE4B. It counts as biochemical. The following applies: Table 1B, Formula I compounds; read-out: IC50 PDE4B. The method, then:
(§1) IC50s were determined by Scintillation Proximity Assay (SPA). The principle of the assay is based on the fact that cAMP, the PDE4 substrate, binds weakly to Yittrium Silicate SPA beads, whereas AMP, the product of PDE4 hydrolysis binds strongly. Thus, the extent of PDE4 hydrolysis of a sample of [^3H]cAMP can be measured because only the
(§2) [^3H]AMP produced by PDE4 hydrolysis will bind to the SPA beads and produce a scintillation signal.
(§3) PDE4 enzymes used for IC50 assays were:
(§4) Enzyme was stored in 50% glycerol at −20°.
(§5) In addition to the compound dilutions, each assay plate contained control wells with 1 μl of DMSO (to define 0% enzyme inhibition) or 1 μl of 200 μM roflumilast (to define 100% enzyme inhibition). […] Next, 10 μl of PDE4 enzyme in assay buffer was added and the plates were shaken for 30 s. at 1000 rpm to start the cAMP hydrolysis reaction. The concentrations of enzyme used were: PDE4B, 80 ng/ml; PDE4D, 4 ng/ml; PDE4B2, 2.5 μl of 50% glycerol stock/ml; PDE4D5 0.083 μl of 50% glycerol stock/ml. Assay plates were covered and incubated for 30 min. at 30°. […] The assay plates were covered with clear plastic film, centrifuged for 1 min. at 1000 RPM to settle the SPA beads, and counted using a Wallac TriLux scintillation counter. IC50's were calculated from the raw assay data by non-linear regression curve fitting using the Assay Explorer software package from MDL.
A general note: In a scintillation proximity assay essentially only radioactivity close to the scintillant gives light.
As to “3-Amino-2-(4-ethyl- phenylcarbamoyl)-6-oxo- 6,7-dihydro- thieno[2.3-b]pyridine- 5-carboxylic acid [Compound 1-6]”, the IC50 is over 10 µM. Still for that read-out and setting: for `Cc1cc(=O)[nH]c2sc(C(=O)c3ccc(Br)cc3)c(N)c12` [Compound 1-3, 3-Amino-2-(4-bromo-benzoyl)-4-methyl-7H-thieno[2,3-b]pyridin-6-one] the value was over 10 µM. On the same count and under the same terms, for `CC(=O)C1=C(C)Nc2sc(C(N)=O)c(N)c2C1c1ccc(Cl)cc1` (centres unmarked) [Compound 1-5, 5-Acetyl-3-amino-4-(4-chloro-phenyl)-6-methyl-4,7-dihydro-thieno[2,3-b]pyridine-2-carboxylic acid amide] the value was under 10 µM. Same read-out and setting: for `CC(=O)C1=C(C)Nc2sc(C(N)=O)c(N)c2C1c1ccco1` (centres unmarked) [Compound 1-7, 5-Acetyl-3-amino-4-furan-2-yl-6-methyl-4,7-dihydro-thieno[2,3-b]pyridine-2-carboxylic acid amide] the value was over 10 µM; for `CCc1ccc(C(=O)c2sc3c(c2N)C(c2cccnc2)C(C(C)=O)=C(C)N3)cc1` (centres unmarked) [Compound 1-8, 1-[3-Amino-2-(4-ethyl-benzoyl)-6-methyl-4-pyridin-3-yl-4,7-dihydro-thieno[2,3-b]pyridin-5-yl]-ethanone], under 10 µM. For the compound `CC(=O)C1=C(C)Nc2sc(C(=O)c3cccc([N+](=O)[O-])c3)c(N)c2C1c1cccnc1` (centres unmarked) [Compound 1-9, 1-[3-Amino-6-methyl-2-(3-nitro-benzoyl)-4-pyridin-3-yl-4,7-dihydro-thieno[2,3-b]pyridin-5-yl]-ethanone], the IC50 is under 10 µM. On the same count and under the same terms, next, `NC(=O)c1sc2[nH]c(=O)c(C(=O)O)cc2c1N` [Compound 1-10, 3-Amino-2-carbamoyl-6-oxo-6,7-diliydro-thieno[2,3-b]pyridine-5-carboxylic acid]: over 10 µM; `Cc1ccc(C2CC(=O)Nc3sc(C(N)=O)c(N)c32)cc1` (centres unmarked) [Compound 1-11, 3-Amino-6-oxo-4-p-tolyl-4,5,6,7-tetrahydro-thieno[2,3-b]pyridine-2-carboxylic acid amide]: over 10 µM; `CCNc1sc(C(=O)OC)c(N)c1C#N` [Compound 1-13, 3-Amino-4-cyano-5-ethylamino-thiophene-2-carboxylic acid methyl ester]: under 10 µM. Still for that read-out and setting: next, `NC(=O)c1sc(Nc2ccccc2)c(-c2nc3ccccc3[nH]2)c1N` [Compound 1-14, 3-Amino-4-(1H-benzoimidazol-2-yl)-5-phenylamino-thiophene-2-carboxylic acid amide]: under 10 µM. As to `COc1ccc(C(=O)c2sc(Nc3ccc(Oc4ccccc4)cc3)c(C#N)c2N)cc1` [Compound 1-174], the IC50 is under 10 µM. The same measure, in the same setting: for `N#Cc1c(NC2CCCC2)sc(C(=O)c2cc(C(=O)N3CCOCC3)no2)c1N` [Compound 1-175, 4-Amino-2-cyclopentylamino-5-[3-(morpholine-4-carbonyl)-isoxazole-5-carbonyl]-thiophene-3-carbonitrile] the value was under 10 µM. On the same count and under the same terms, next, `N#Cc1c(NC2CCCC2)sc(C(=O)c2ccc(-c3ccccc3)cc2)c1N` [Compound 1-188, 4-Amino-5-(biphenyl-4-carbonyl)-2-cyclopentylamino-thiophene-3-carbonitrile]: under 10 µM; `N#Cc1c(Nc2ccccc2Cl)sc(C(=O)c2ccc(Oc3ccccc3)cc2)c1N` [Compound 1-194, 4-Amino-2-(2-chloro-phenylamino)-5-(4-phenoxy-benzoyl)-thiophene-3-carbonitrile]: under 10 µM.

Staying with this experiment, now noted: Table 3A, Formula III compounds; read-out: IC50 PDE4B.
Consider `CSc1nccc(-c2ccc(S(=O)(=O)Nc3ccc(Br)c4cccnc34)s2)n1` [Compound 3-17, 5-(2-Methylsulfanyl-pyrimidin-4-yl)-thiophene-2-sulfonic acid (5-bromo-quinolin-8-yl)-amide], for which the IC50 is under 10 µM. The same measure, in the same setting: next, `COc1ccc(NS(=O)(=O)c2ccc(-c3ccnc(SC)n3)s2)c2ncccc12` [Compound 3-18, 5-(2-Methylsulfanyl-pyrimidin-4-yl)-thiophene-2-sulfonic acid (5-methoxy-quinolin-8-yl)-amide]: under 10 µM; `CSc1ncc(-c2ccc(S(=O)(=O)N(C)c3cccc4cccnc34)s2)cn1` [Compound 3-19, 5-(2-Methylsulfanyl-pyrimidin-5-yl)-thiophene-2-sulfonic acid methyl-quinolin-8-yl-amide]: under 10 µM; `O=S(=O)(Nc1ccc(Br)c2cccnc12)c1ccc(-c2cnco2)s1` [Compound 3-35, 5-Oxazol-5-yl-thiophene-2-sulfonic acid (5-bromo-quinolin-8-yl)-amide]: under 10 µM. As for `COc1ccc(NS(=O)(=O)c2ccc(-c3cnco3)s2)c2ncccc12` [Compound 3-36, 5-Oxazol-5-yl-thiophene-2-sulfonic acid (5-methoxy-quinolin-8-yl)-amide], the IC50 was under 10 µM. Still for that read-out and setting: for `COc1cc(NS(=O)(=O)c2c(Cl)cccc2Cl)c2ncccc2c1` [Compound 3-50, 2,6-Dichloro-N-(6-methoxy-quinolin-8-yl)-benzenesulfonamide] the value was over 10 µM; for `O=S(=O)(Nc1cc(Br)cc2cccnc12)c1ccccc1` [Compound 3-59, N-(6-Bromo-quinolin-8-yl)-benzenesulfonamide], over 10 µM.

Regarding `COc1ccc(Br)cc1S(=O)(=O)Nc1cccc2cccnc12` [Compound 3-60, 5-Bromo-2-methoxy-N-quinolin-8-yl-benzenesulfonamide], the IC50 is over 10 µM. For `O=S(=O)(Nc1cccc2cccnc12)c1cccc(Nc2ccncn2)c1` [Compound 3-61, 3-(Pyrimidin-4-ylamino)-N-quinolin-8-yl-benzenesulfonamide], the IC50 is under 10 µM. On the same count and under the same terms, for `CSc1nc(Nc2ccc(S(=O)(=O)Nc3cccc4cccnc34)cc2)c2ccccc2n1` [Compound 3-62, 4-(2-Methylsulfanyl-quinazolin-4-ylamino)-N-quinolin-8-yl-benzenesulfonamide] the value was under 10 µM; for `CSc1nc(Nc2cccc(S(=O)(=O)Nc3cccc4cccnc34)c2)c2ccccc2n1` [Compound 3-63, 3-(2-Methylsulfanyl-quinazolin-4-ylamino)-N-quinolin-8-yl-benzenesulfonamide], under 10 µM.

For `O=C(c1ccncc1)c1ccc(S(=O)(=O)Nc2cccc3cccnc23)cc1` [Compound 3-64, 4-(Pyridine-4-carbonyl)-N-quinolin-8-yl-benzenesulfonamide], the IC50 was under 10 µM.

On to `O=S(=O)(Nc1cccc2cccnc12)c1ccc(N2CCOCC2)cc1` [Compound 3-65, 4-Morpholin-4-yl-N-quinolin-8-yl-benzenesulfonamide], for which the IC50 is under 10 µM. Take `Cc1nccc(-c2cccc(S(=O)(=O)Nc3ccc(Br)c4cccnc34)c2)n1` [Compound 3-67, N-(5-Bromo-quinolin-8-yl)-3-(2-methyl-pyrimidin-4-yl)-benzenesulfonamide]: the IC50 is over 10 µM. On the same count and under the same terms, for `COc1ccc(NS(=O)(=O)c2cccc(-c3ccnc(C)n3)c2)c2ncccc12` [Compound 3-68, N-(5-Methoxy-quinolin-8-yl)-3-(2-methyl-pyrimidin-4-yl)-benzenesulfonamide] the value was under 10 µM; for `O=S(=O)(Nc1cccc2cccnc12)c1ccc(Oc2ccccc2)nc1` [Compound 3-69, 6-Phenoxy-pyridine-3-sulfonic acid quinolin-8-ylamide], over 10 µM.

The experiment is the same for the next values; noted with them: second part of Table 2B (2-23 to 2-103), column 3; column is PDE4B in first part; read-out: IC 50 vs. indicated assay h TNFα.
For the compound `Nc1nc(Nc2c(F)cccc2F)sc1C(=O)c1ccccc1` [Compound 2-44, [4-Amino-2-(2,6-difluoro-phenylamino)-thiazol-5-yl]-phenyl-methanone], the IC50 is under 10 µM.

For the next experiment, the target named is T2, PDE4D (Homo sapiens, UniProt Q08499).
T2 construct: PDE4D: The catalytic domain of human PDE4B from S3 16-V692; His6 (N); thrombin cleavage site (N); made in house; host or cells: E. coli
T2 sequence (Q08499 380-756): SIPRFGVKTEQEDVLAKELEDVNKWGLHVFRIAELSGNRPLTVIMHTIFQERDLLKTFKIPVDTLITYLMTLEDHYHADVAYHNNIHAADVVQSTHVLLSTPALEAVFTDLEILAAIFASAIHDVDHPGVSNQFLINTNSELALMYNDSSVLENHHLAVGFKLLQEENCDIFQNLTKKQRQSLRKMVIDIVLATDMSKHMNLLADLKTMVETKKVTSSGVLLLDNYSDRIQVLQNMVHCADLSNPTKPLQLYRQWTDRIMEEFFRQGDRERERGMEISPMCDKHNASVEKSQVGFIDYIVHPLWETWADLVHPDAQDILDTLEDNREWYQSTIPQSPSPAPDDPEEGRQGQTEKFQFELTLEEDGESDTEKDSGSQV
Description: PDE4 IC50 determination by Scintillation Proximity Assay, PDE4D. The class given is biochemical. The note with it: Table 1B, Formula I compounds; read-out: IC50 PDE4D. The method, then: as §1, §2, §3, §4, §5
Take `Cc1cc(=O)[nH]c2sc(C(=O)c3ccc(Cl)c(Cl)c3)c(N)c12` [Compound 1-27, 3-Amino-2-(3,4-dichloro-benzoyl)-4-methyl-7H-thioeno[2,3-b]pyridin-6-one]: the IC50 is over 10 µM.

The same experiment, now with this note: first part of Table 2B (2-1 to 2-22); read-out: IC 50 vs. indicated assay PDE4D.
On to `Nc1nc(Nc2ccc(Oc3ccccc3)cc2)sc1C(=O)c1cc(-c2ccccc2)no1` [Compound 2-8, [4-Amino-2-(4-phenoxy-phenylamino)-thiazol-5-yl]-(3-phenyl-isoxazol-5-yl)-methanone], for which the IC50 is over 10 µM.

Still in this experiment, the particulars now being: second part of Table 2B (2-23 to 2-103), column 5; column is PDE4D in first part; read-out: IC 50 vs. indicated assay h TNFα.
For `Nc1nc(Nc2ccc(Oc3ccccc3)cc2)sc1C(=O)c1ccc(Oc2ccccc2)cc1` [Compound 2-47, [4-Amino-2-(4-phenoxy-phenylamino)-thiazol-5-yl]-(4-phenoxy-phenyl)-methanone], the IC50 is over 10 µM. `Nc1nc(Nc2ccc(Oc3ccccc3)cc2)sc1C(=O)c1ccc(OC(F)F)cc1` [Compound 2-61, [4-Amino-2-(4-phenoxy-phenylamino)-thiazol-5-yl]-(4-difluoromethoxy-phenyl)-methanone]: the IC50 is over 10 µM.
